According to US11331299B2, “Medicinal use of serrulatane diterpenes” (The University of Sydney, priority 2016, dated 2022):
Like-named read-outs stand apart in the source and are kept apart here.

How the values were obtained:
[1] = tested on: Nitric Oxide Synthase, Endothelial (eNOS); assay: Nitric Oxide Synthase, Endothelial (eNOS); format: biochemical; conditions: 10 μM; assay year 2014
[2] = Keratinocyte cell viability, CCL2 assay (assay number 1243); format: cell-based, human; conditions: human; read-out: Inhibition of cell viability, Max Effect
[3] = tested on: primary human keratinocytes; assay: as above; format: cell-based; conditions: Homo sapiens, Keratinocyte; read-out: Inhibition of cell viability, Rel EC50
Deacetylase, Histone 11 = Deacetylase, Histone 11 (Homo sapiens, UniProt Q96DB2); assay: Deacetylase, Histone 11 (PanLab); format: biochemical; conditions: assay year 2014, read-out: % Control Response
[4] = tested on: Nitric Oxide Synthase, Inducible (iNOS); assay: Nitric Oxide Synthase, Inducible (iNOS); format: biochemical; conditions: 10 μM; assay year 2014
CCD 841 CoN = assay: OncoPanel normal cell proliferation assay (3-day); format: cell-based; conditions: Homo sapiens, 72 h, colon epithelial, 3-day incubation
Deacetylase, Histone 5 = Deacetylase, Histone 5 (Homo sapiens, UniProt Q9UQL6); assay: Deacetylase, Histone 5 (PanLab); format: biochemical; conditions: assay year 2014, read-out: % Control Response
[5] = tested on: IL-4 secretion from human CD4-positive T-cells stimulated with antiCD2/antiCD3/antiCD28-coated beads; assay: T-cell IL-4 assay; format: cell-based
dopamine D3 (h) = dopamine D3 (h) (Homo sapiens, UniProt P35462); assay: biochemical; format: binding
histamine H1 (h) = histamine H1 (h) (Homo sapiens, UniProt P35367); assay: Bioprint radioligand binding assay
[6] = target: sirtuin 1 (h) (activator effect) (Homo sapiens, UniProt Q96EB6); format: biochemical; conditions: 10 μM
HMEC = assay: OncoPanel normal cell proliferation assay (3-day); format: cell-based; conditions: Homo sapiens, 72 h, HMEC, mammary epithelial, 3-day incubation
[7] = tested on: IL-8 release from IL-17A and TNFα-induced primary human keratinocytes; assay: Keratinocyte IL-8 release (assay number 1250); format: cell-based
[8] = tested on: 4 normal cell types, CCD 841 CoN, HMEC, HREC and Wi38; assay: OncoPanel normal cell proliferation assay (3-day), panel; format: cell-based; conditions: all 4 cell lines
[9] = target: Deacetylase, Sirtuin SIRT5 (Homo sapiens, UniProt Q9NXA8); assay: Deacetylase, Sirtuin SIRT5 (PanLab); format: biochemical; conditions: assay year 2014, read-out: % Control Response
adenosine A3 (h) = adenosine A3 (h) (Homo sapiens, UniProt P0DMS8); assay: Bioprint radioligand binding assay
cannabinoid CB2 (h) = cannabinoid CB2 (h) (Homo sapiens, UniProt P34972); assay: Bioprint radioligand binding assay
hDNMT3a = hDNMT3a (Homo sapiens, UniProt Q9Y6K1); conditions: read-out: Reference: IC50; cited from earlier work
PRDM9 (h) = PRDM9 (h) (Homo sapiens, UniProt Q9NQV7); conditions: read-out: Reference: (IC50 not given); cited from earlier work
DNMT3B/DNMT3L (h) = DNMT3B/DNMT3L (h) (Homo sapiens, UniProt Q9UBC3); conditions: read-out: Reference IC50; cited from earlier work
SETD2(h) = SETD2(h) (Homo sapiens, UniProt Q9BYW2); conditions: read-out: Reference: (IC50 not given); cited from earlier work
PRMT3 (h) = PRMT3 (h) (Homo sapiens, UniProt O60678); conditions: read-out: Reference: (IC50 not given); cited from earlier work
DNMT3b = DNMT3b (Homo sapiens, UniProt Q9UBC3); conditions: read-out: Reference IC50; cited from earlier work
MLL4(h) complex = conditions: read-out: Reference: (IC50 not given); cited from earlier work
[10] = read-out: % inhibition of control specific binding

Sequence of histamine H1 (h) (P35367 whole entry): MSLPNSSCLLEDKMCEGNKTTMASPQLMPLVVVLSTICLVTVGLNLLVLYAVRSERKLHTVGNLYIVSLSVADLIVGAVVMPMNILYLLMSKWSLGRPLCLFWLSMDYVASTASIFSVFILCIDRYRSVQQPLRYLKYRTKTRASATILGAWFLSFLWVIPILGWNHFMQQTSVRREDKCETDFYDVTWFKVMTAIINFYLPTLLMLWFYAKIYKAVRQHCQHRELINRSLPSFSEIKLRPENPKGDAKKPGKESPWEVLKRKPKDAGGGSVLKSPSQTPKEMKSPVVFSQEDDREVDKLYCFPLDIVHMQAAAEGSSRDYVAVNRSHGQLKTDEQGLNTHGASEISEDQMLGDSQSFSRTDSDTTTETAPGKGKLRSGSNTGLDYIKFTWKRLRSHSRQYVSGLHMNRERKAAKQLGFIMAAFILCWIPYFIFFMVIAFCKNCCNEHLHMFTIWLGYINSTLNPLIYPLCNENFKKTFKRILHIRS
Sequence of adenosine A3 (h) (P0DMS8 whole entry): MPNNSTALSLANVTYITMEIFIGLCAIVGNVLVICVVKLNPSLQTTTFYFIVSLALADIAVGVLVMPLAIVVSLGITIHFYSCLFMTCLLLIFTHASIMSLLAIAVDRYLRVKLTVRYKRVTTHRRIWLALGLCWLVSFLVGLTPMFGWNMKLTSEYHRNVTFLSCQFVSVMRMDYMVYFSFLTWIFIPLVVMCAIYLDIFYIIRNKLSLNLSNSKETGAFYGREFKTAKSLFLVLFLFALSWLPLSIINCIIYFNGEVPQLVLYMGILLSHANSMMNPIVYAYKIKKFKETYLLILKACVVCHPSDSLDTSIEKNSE
Sequence of dopamine D3 (h) (P35462 whole entry): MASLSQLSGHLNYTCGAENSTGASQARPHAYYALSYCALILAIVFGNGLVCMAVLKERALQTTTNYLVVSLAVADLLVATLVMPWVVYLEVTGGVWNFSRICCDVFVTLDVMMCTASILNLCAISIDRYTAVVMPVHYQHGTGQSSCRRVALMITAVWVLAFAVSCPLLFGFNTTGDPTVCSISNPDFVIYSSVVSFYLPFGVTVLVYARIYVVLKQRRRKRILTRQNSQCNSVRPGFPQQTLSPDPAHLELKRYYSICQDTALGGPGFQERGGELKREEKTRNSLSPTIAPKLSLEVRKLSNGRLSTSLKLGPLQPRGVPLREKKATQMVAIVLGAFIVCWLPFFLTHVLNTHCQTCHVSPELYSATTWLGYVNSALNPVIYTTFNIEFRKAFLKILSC
Sequence of Deacetylase, Sirtuin SIRT5 (Q9NXA8 37-310): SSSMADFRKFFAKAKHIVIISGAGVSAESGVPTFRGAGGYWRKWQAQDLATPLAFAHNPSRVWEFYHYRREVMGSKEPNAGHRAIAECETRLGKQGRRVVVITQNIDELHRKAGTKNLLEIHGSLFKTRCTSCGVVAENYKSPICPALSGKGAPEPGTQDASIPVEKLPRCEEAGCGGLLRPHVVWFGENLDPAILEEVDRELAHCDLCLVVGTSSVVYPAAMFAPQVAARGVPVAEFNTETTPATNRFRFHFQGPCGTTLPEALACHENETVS
Sequence of cannabinoid CB2 (h) (P34972 whole entry): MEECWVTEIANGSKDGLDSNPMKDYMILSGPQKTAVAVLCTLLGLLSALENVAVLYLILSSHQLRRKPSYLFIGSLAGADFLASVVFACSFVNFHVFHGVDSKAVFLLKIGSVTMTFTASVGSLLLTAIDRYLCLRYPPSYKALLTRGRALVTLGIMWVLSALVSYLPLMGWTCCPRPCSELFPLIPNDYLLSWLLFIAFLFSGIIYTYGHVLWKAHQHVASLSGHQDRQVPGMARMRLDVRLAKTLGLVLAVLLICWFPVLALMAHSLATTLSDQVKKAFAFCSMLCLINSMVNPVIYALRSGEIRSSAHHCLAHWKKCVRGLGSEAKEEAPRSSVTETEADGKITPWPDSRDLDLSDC
Sequence of Deacetylase, Histone 5 (Q9UQL6 whole entry): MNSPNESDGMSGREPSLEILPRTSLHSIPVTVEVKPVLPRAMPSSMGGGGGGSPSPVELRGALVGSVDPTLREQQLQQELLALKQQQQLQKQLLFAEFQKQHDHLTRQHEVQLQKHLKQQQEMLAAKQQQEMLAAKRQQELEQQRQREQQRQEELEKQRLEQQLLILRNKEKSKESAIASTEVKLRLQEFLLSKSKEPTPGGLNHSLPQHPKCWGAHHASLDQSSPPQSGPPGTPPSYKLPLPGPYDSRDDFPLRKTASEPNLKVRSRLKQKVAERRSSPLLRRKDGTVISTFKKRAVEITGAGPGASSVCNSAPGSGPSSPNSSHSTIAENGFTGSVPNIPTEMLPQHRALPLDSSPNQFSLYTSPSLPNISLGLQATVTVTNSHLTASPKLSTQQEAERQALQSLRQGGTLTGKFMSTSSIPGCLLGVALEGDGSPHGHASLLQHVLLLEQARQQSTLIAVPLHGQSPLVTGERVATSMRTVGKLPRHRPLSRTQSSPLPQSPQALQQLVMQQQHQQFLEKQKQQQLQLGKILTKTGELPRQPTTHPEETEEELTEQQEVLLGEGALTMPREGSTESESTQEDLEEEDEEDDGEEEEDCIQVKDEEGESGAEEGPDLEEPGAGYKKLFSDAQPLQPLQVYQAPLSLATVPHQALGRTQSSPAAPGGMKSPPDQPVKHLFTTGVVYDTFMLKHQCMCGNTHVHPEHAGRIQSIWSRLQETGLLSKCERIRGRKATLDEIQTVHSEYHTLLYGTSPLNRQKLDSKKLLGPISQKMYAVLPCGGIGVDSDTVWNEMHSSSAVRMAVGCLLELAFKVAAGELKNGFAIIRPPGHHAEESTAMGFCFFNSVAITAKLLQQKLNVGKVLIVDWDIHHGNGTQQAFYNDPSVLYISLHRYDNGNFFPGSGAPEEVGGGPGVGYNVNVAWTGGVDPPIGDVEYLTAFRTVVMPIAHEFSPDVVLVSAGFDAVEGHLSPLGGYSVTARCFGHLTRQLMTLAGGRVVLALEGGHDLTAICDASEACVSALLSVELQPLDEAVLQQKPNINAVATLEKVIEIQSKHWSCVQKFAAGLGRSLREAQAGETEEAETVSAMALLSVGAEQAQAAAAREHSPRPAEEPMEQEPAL
Sequence of Deacetylase, Histone 11 (Q96DB2 whole entry): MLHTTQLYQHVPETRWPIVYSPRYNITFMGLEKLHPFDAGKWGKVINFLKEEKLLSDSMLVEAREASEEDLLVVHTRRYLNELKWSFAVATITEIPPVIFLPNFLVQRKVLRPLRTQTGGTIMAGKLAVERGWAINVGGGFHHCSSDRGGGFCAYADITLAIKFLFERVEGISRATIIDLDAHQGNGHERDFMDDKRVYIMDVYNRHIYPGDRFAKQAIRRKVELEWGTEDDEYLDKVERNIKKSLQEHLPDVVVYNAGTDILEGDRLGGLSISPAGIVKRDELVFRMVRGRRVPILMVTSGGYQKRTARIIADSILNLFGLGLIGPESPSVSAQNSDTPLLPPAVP
Sequence of sirtuin 1 (h) (activator effect) (Q96EB6 whole entry): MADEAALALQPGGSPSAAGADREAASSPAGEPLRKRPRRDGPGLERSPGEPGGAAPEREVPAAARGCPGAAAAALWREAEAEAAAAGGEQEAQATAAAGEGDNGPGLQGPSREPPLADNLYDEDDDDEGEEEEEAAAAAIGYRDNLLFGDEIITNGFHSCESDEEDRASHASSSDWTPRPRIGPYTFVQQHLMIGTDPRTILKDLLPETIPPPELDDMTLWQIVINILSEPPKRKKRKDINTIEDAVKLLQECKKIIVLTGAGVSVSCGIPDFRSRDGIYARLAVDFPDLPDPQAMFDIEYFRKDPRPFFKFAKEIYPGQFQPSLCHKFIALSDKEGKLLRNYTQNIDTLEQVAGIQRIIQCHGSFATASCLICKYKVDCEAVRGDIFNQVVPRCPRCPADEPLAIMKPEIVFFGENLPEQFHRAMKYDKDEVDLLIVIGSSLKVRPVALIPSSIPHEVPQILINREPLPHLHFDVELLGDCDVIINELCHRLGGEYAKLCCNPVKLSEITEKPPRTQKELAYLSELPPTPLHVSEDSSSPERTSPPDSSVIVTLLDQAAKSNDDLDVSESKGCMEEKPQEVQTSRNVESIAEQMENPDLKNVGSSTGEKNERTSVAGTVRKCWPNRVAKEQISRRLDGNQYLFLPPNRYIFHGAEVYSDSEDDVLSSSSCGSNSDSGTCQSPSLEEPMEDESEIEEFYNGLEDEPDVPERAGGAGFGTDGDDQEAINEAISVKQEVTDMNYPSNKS
Sequence of PRDM9 (h) (Q9NQV7 whole entry): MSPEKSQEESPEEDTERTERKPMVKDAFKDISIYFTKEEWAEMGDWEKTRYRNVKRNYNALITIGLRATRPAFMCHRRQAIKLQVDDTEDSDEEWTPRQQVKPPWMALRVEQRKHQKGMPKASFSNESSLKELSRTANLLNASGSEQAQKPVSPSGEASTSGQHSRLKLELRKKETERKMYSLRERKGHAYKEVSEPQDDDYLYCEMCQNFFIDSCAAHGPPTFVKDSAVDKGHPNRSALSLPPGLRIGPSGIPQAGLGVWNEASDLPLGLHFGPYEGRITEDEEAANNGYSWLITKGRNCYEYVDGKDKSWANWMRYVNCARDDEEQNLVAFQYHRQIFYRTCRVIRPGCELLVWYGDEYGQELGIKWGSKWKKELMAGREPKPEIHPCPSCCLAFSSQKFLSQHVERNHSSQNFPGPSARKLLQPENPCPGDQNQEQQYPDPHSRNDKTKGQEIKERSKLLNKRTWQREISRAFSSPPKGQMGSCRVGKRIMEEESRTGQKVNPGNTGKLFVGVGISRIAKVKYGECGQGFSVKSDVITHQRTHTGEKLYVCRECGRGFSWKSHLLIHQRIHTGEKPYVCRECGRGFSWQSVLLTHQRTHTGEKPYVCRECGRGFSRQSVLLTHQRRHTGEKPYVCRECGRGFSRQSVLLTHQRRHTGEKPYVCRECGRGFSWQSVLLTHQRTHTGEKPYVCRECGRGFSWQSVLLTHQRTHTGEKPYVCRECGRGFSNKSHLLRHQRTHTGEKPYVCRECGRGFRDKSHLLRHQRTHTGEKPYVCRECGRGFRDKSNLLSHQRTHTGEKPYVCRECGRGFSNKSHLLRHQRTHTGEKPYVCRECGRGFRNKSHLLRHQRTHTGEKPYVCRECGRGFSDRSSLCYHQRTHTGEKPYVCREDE

With CC(C)=CCC[C@H](CO)[C@@H]1CC[C@@H](C)c2c1cc(C)c(O)c2O [Compound 1, 7,8,18-trihydroxyserrulat-14-ene] the “% Control Response” value [1] was 6%, the cytotoxicity [2] was 103% and the EC50 [3] was 0.708 µM. For the same compound, the remaining activity at 10 µM (Deacetylase, Histone 11) was 9%, the “% Control Response” value [4] was 16% and the EC50 (CCD 841 CoN; read-out: Cell Count EC50) was 4.86 µM. The GI50 (CCD 841 CoN; read-out: Cell Count GI50) was 5.27 µM, the IC50 (CCD 841 CoN; read-out: Cell Count IC50) was 14.3 µM and the remaining activity at 10 µM (Deacetylase, Histone 5) was -9%. It also gave an Emax ([5]; read-out: Inhibition of IL-4 release, Max Effect) of 100%, an EC50 ([5]; read-out: Inhibition of IL-4 release, Rel EC50) of 0.523 µM and an inhibition at 10 µM (dopamine D3 (h); DOPAMINE D3 (h) (antagonist radioligand), read-out: % Inhibition of Control Specific Binding) of 85%. It also gave an inhibition at 10 µM (dopamine D3 (h); [10]) of 85%, an inhibition at 10 µM (histamine H1 (h); HISTAMINE H1 (h) (antagonist radioligand), read-out: % Inhibition of Control Specific Binding) of 64% and an inhibition at 10 µM (histamine H1 (h); [10]) of 64%. The “% Stimulation Relative to Control” value [6] was −5%, the EC50 (HMEC; read-out: Cell Count EC50) was 30 µM and the GI50 (HMEC; read-out: Cell Count GI50) was 6.39 µM. For the same compound, the IC50 (HMEC; read-out: Cell Count IC50) was 30 µM, the Emax ([7]; read-out: Inhibition of IL-8 release, Max Effect) was 110% and the EC50 ([7]; read-out: Inhibition of IL-8 release, Rel EC50) was 0.157 µM. The “toxicity towards normal cells” value [8] was “relatively low toxicity”, the remaining activity at 10 µM [9] was -16% and the inhibition at 10 µM (adenosine A3 (h); ADENOSINE A3 (h) (agonist radioligand), read-out: % Inhibition of Control Specific Binding) was 92%. For the same compound, the inhibition at 10 µM (adenosine A3 (h); [10]) was 92%, the inhibition at 10 µM (cannabinoid CB2 (h); CANNABINOID CB2 (h) (agonist radioligand), read-out: % Inhibition of Control Specific Binding) was 71% and the inhibition at 10 µM (cannabinoid CB2 (h); [10]) was 71%.
With CC(C)=CCC[C@@H]1C(O)Oc2c(C)cc(O)c3c2[C@H]1CC[C@H]3C (stereo partly shown) [Compound 2, 5,18-epoxyserrulat-14-en-8,18-diol] the “% Control Response” value [1] was 5%, the remaining activity at 10 µM (Deacetylase, Histone 11) was 5% and the “% Control Response” value [4] was 7%. The remaining activity at 10 µM (Deacetylase, Histone 5) was -11% and the remaining activity at 10 µM [9] was 24%.
In the case of CC(C)=CCC[C@@H]1COc2c(C)cc(O)c3c2[C@H]1CC[C@H]3C [Compound 3, 5,18-epoxy-8-hydroxyserrulat-14-ene], the “% Stimulation Relative to Control” value [6] is reported as −4%.
In the case of Nc1ncnc2c1ncn2[C@@H]1O[C@H](CSCC[C@H](N)C(=O)O)[C@@H](O)[C@H]1O [SAH], the IC50 (hDNMT3a) is listed as 0.052 µM, the IC50 (PRDM9 (h)) is listed as 370 µM and the IC50 (DNMT3B/DNMT3L (h)) is listed as 0.045 µM. The IC50 (SETD2(h)) was 1.2 µM, the IC50 (PRMT3 (h)) was 0.86 µM and the IC50 (DNMT3b) was 0.094 µM. The IC50 (MLL4(h) complex) was 0.97 µM.
